The results in this text go back to US10813891B2, “Method of inhibiting chronification of pain” (priority 2011, dated 2020).

“And” between values parts separate entries of the source, which are not always exact repeats. Identical values can stand only once.

This test concerns male albino rats (Sprague Dawley) with paw incision. The test is described as follows: Paw incision model for postoperative pain (electronic von Frey, tactile withdrawal threshold). The class given is in vivo, rat. The source says: Post operative, incisional pain is a common form of persistent, acute pain. Brennan et al. (Brennan T J, Vandermeulen E P, and Gebhart G F. Characterization of a rat model of incisional pain. Pain 1996; 64:493-501) developed a post operative model in rats with surgical intervention on the plantar surface of the hind foot for the evaluation of novel analgesic therapeutics. A surgical incision of the rat foot causes a reliable and quantifiable tactile hypersensitivity during the initial post operative period and lasting for several days after surgery. This model may thus be useful for predicting analgesia by investigational agents for post operative pain.
The experiments were carried out in male albino rats (Sprague Dawley) with 170 g-230 g body weight from a commercial breeder (Charles River, Germany). Surgery was performed as previously described. Brennan et al. (Brennan T J, Vandermeulen E P, and Gebhart G F. Characterization of a rat model of incisional pain. Pain 1996; 64:493-501). Briefly, rats were anaesthetised with isoflurane, and a 1 cm longitudinal incision was made, through skin and fascia of the plantar aspect of the foot, starting from the proximal edge of the heel and extending toward the metatarsal toes. The plantaris muscle was elevated and incised longitudinally. The muscle origin and insertion remained intact. After spreading of the muscle and haemostasis with gentle pressure, the skin was closed with two single interrupted sutures. After surgery, the rats were allowed to recover in their home cages and the animals regained consciousness within 2 to 5 minutes. In order to ensure a complete recovery from anaesthesia the baseline value of each individual animal was recorded not until 2 hours after surgery.
The rats were placed in a plastic cage with a wire mesh bottom which allowed full access to the paws. Hind paw withdrawal threshold after mechanical stimulation was tested with electronic von Frey hairs (Somedic Sales AB, Hörby, Sweden). Ten rats were used per experimental group. Animals were placed in a plastic cage with a wire mesh bottom which allowed full access to the paws. Behavioral accommodation was allowed for 30 min. In each case, withdrawal response was measured at an area adjacent to the wound (ipsilateral) and to the same area on the non-injured foot (contralateral). Two hours after surgery, primary hypersensitivity was tested as tactile withdrawal threshold (tactile hyperalgesia) shortly before drug administration and at different time points after drug application. Animals injected with vehicle served as controls. The pretest measurement was made prior to surgery and two thresholds were taken per test and averaged. Ten rats were used per experimental group. Tactile withdrawal threshold was measured pre and after substance administration from day 1 to day 5 post surgery. From day 6 to day 13 post surgery the withdrawal threshold was measured without substance administration (wash out phase). The efficacy was expressed as MPE %=% of maximal possible effect, whereas MPE is defined as 100% reversal of tactile hyperalgesia compared to vehicle group.
Tapentadol at the dose of 14.7 mg/kg intraperitoneal route (i.p.) was adminstered twice daily (BID) (7 a.m./7 p.m.) throughout day 1 to day 5. The first administration was given 20 min before surgery on day 1. From day 6 to day 13 no substance was given (wash out phase) The study scheme is schematically illustrated in FIG. 1.

On to `CC[C@@H](c1cccc(O)c1)[C@@H](C)CN(C)C` [Tapentadol, (−)-(1R,2R)-3-(3-dimethylamino-1-ethyl-2-methyl-propyl)-phenol], for which the “effect on sustained tactile hyperalgesia following surgical lesion” value (14.7 mg/kg i.p. BID day 1-5, washout day 6-13) is given as “outlasts treatment duration”. For the same molecule, the “MPE % (reversal of tactile hyperalgesia)” value reads like this: (14.7 mg/kg i.p. BID day 1-5, d 2_0.5 h (0.5 h after treatment on day 2 after surgery)) 38.3±5.48% and 38.3 ± 4.58 %; (14.7 mg/kg i.p. BID, d 3-0.5 h) 36.8 ± 2.41 %; (14.7 mg/kg i.p. BID, d 4-0.5 h) 34.5 ± 3.27 %; (14.7 mg/kg i.p. BID, d 5-0.5 h (last day of treatment)) 22.8 ± 5.29 %; (14.7 mg/kg i.p. BID, d 5-0.5 h (last day of treatment), listed as tapentadol) 22.8±5.29%; (14.7 mg/kg i.p. BID, pre-d 3 (before administration, day 3)) −0.6 ± 2.21 n.s. %. The “MPE % (reversal of tactile hyperalgesia)” value runs as follows: (14.7 mg/kg i.p. BID, pre-d 4) −6.00 ± 1.63 %; (14.7 mg/kg i.p. BID, pre-d 5) −6.60 ± 1.67 %; (pre-d 8, washout phase (third day of washout) after 14.7 mg/kg i.p. BID day 1-5) 2.60 ± 2.51 n.s. %; (pre-d 8, washout phase (third day of washout) after 14.7 mg/kg i.p. BID day 1-5, listed as tapentadol) 3%; (pre-d 10, washout phase after 14.7 mg/kg i.p. BID day 1-5) 11.4 ± 3.21 %; (pre-d 11, washout phase after 14.7 mg/kg i.p. BID day 1-5) 8.90 ± 2.59 %. Also, the “MPE % (reversal of tactile hyperalgesia)” value (pre_d 9, washout phase after 14.7 mg/kg i.p. BID day 1-5) turned out to be 17.2 ± 3.43 %; the “MPE % (reversal of tactile hyperalgesia)” value (pre_d 9, washout phase after 14.7 mg/kg i.p. BID day 1-5, listed as tapentadol) came out at 17%; the “MPE % (reversal of tactile hyperalgesia)” value (pre_d 12, washout phase (7 days of washout) after 14.7 mg/kg i.p. BID day 1-5) is 8.60 ± 3.94 %; the “MPE % (reversal of tactile hyperalgesia)” value (pre_d 12, washout phase (7 days of washout) after 14.7 mg/kg i.p. BID day 1-5, listed as tapentadol) is reported as 9%. In addition, the “remaining efficacy as % of the efficacy after substance treatment on day 5” value is, setting by setting: (after 7 days of washout) 39%; (day 9 (washout)) 74%.
